Measurements: PMC4703101 (Chemical research in toxicology, 2015)
Counter-ions that a name gives are not always drawn. Marks after values point to notes of the source that are not given here.

Columns and labels:
Xanthine Dehydrogenase = Xanthine Dehydrogenase (Mus musculus, UniProt Q00519); test: Xanthine dehydrogenase assay, liver cytosol; assay type: in vitro ADME; conditions: WT and LCN liver cytosol
Liver microsomal P450 [1] = test: Liver microsomal P450 oxidation; assay type: in vitro ADME; conditions: Human liver microsome (H112); substrate 100 μM (AαC, PhIP, MeIQx), 10 μM (MROD)
[2] = Pharmacokinetics of plasma AαC and its metabolites after oral gavage of AαC; assay type: in vivo, mice (C57BL/6 background; WT, LCN, IECN); conditions: for AUC 0-24 h in plasma, fold greater in LCN mice than in WT mice / Cmax in plasma, fold greater in LCN mice than in WT mice / clearance rate, fold lower in LCN mice than in WT mice: for AαC also vs IECN; for CL/F / AUC(0-t) / Cmax / half-life / Tmax / AUC0-24h / t1/2 / AUC0-6h: plasma
Liver microsomal P450 [3] = test: Liver microsomal P450 oxidation; assay type: in vitro ADME, mouse; conditions: for P450 Oxidation: substrate 100 μM (AαC, PhIP, MeIQx), 10 μM (MROD), mean and SD, n ≥3, N.D. = not detected; for levels of metabolism, fold greater than AαC: 100 µM substrate
Aldehyde Oxidase = test: Aldehyde oxidase assay, liver cytosol; conditions: WT and LCN liver cytosol
[4] = tested on: Flavin monooxygenase (FMO); test: Microsomal flavin monooxygenase; conditions: WT and LCN liver microsomes
DNA [5] = conditions: liver, kidney, colon, and mammary gland of female Cyp1a2-null mice; cited from earlier work
DNA [6] = conditions: cited from earlier work
P450 1A2 = conditions: human hepatocytes in primary culture pretreated with furafylline; cited from earlier work
[7] = IECN mice, AαC 13.6 mg/kg oral gavage, mean ± S.D. n=5
[8] = LCN mice, AαC 1.36 mg/kg oral gavage, mean ± S.D. n=5
[9] = LCN mice, AαC 13.6 mg/kg oral gavage, mean ± S.D. n=5
[10] = WT mice, AαC 1.36 mg/kg oral gavage, mean ± S.D. n=5
[11] = WT mice, AαC 13.6 mg/kg oral gavage, mean ± S.D. n=5

Xanthine Dehydrogenase, sequence (Q00519 whole entry): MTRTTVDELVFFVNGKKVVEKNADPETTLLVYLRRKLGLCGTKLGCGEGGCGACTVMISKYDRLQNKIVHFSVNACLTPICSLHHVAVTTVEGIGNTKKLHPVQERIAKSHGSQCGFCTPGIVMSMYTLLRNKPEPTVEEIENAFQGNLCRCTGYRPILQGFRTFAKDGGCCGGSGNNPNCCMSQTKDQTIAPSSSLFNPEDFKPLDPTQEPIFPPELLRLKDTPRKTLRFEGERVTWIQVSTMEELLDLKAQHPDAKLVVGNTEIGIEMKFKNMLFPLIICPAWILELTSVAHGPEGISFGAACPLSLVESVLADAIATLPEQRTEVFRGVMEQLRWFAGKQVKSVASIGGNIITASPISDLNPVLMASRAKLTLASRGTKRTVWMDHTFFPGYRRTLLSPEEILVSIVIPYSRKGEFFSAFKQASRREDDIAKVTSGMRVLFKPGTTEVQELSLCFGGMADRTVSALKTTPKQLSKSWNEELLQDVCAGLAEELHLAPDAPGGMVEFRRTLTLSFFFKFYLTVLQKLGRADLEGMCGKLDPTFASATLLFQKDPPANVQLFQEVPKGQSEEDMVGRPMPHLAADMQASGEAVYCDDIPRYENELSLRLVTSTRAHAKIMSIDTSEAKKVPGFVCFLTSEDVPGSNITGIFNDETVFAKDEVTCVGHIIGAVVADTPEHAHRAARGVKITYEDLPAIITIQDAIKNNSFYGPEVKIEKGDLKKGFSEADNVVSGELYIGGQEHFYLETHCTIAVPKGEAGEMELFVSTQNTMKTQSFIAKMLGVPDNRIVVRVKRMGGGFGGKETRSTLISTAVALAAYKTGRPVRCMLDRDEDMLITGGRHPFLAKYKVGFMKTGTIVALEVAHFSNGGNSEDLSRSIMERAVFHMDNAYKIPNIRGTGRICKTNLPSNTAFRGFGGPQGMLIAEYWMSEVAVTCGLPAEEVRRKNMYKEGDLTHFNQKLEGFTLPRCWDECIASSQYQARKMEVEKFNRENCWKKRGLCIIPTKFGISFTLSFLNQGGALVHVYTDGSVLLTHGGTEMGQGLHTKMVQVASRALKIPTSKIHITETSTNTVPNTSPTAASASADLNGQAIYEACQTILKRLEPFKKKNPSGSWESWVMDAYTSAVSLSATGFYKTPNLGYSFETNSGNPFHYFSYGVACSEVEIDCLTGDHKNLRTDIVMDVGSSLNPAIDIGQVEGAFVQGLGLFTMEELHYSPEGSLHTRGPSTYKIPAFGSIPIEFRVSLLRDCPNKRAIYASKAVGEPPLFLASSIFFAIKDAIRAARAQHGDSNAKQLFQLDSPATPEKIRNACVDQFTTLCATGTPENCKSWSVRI

Nc1ccc2c(n1)[nH]c1ccccc12 [AαC, 2-Amino-9H-pyrido[2,3-b]indole]
AαC metabolism, if present (limit of detection by HPLC-UV) (Xanthine Dehydrogenase): < 50 pmol/min/mg protein
P450 Oxidation (Liver microsomal P450 [1]): 820 ± 60 pmol/min/mg protein
AUC 0-24 h in plasma, fold greater in LCN mice than in WT mice ([2]; AαC 13.6 mg/kg oral gavage): about 20 fold
Cmax in plasma, fold greater in LCN mice than in WT mice ([2]; AαC 13.6 mg/kg oral gavage): 10 fold
clearance rate, fold lower in LCN mice than in WT mice ([2]; AαC 13.6 mg/kg oral gavage): 20 fold
CL/F [2, 7]: 5920 ± 1530 mL/h
CL/F [2, 8]: 884 ± 378^a ml/h
CL/F [2, 9]: 335 ± 146^b ml/h
CL/F [2, 10]: 15300 ± 5690 mL/h
CL/F [2, 11]: 6900 ± 1850 mL/h
AUC(0-t) ([2]; male, C57BL/6, mouse, po, 1.36 mg/kg, AUC0-6h, LCN mice, AαC 1.36 mg/kg oral gavage, mean ± S.D. n=5): 45.2 ± 16.9 ng·h/mL
AUC(0-t) ([2]; male, C57BL/6, mouse, po, 1.36 mg/kg, AUC0-6h, WT mice, AαC 1.36 mg/kg oral gavage, mean ± S.D. n=5): 2.5 ± 1.3 ng·h/mL
Cmax ([2]; male, C57BL/6, mouse, po, 1.36 mg/kg, Cmax, LCN mice, AαC 1.36 mg/kg oral gavage, mean ± S.D. n=5): 21.8 ± 13.6 ng/mL
Cmax ([2]; male, C57BL/6, mouse, po, 1.36 mg/kg, Cmax, WT mice, AαC 1.36 mg/kg oral gavage, mean ± S.D. n=5): 1.4 ± 0.9 ng/mL
half-life ([2]; male, C57BL/6, mouse, po, 1.36 mg/kg, t1/2, LCN mice, AαC 1.36 mg/kg oral gavage, mean ± S.D. n=5): 1.4 ± 0.5 h
half-life ([2]; male, C57BL/6, mouse, po, 1.36 mg/kg, t1/2, WT mice, AαC 1.36 mg/kg oral gavage, mean ± S.D. n=5): 1.7 ± 0.9 h
Tmax ([2]; male, C57BL/6, mouse, po, 13.6 mg/kg): 1 h
AUC(0-t) ([2]; male, C57BL/6, mouse, po, 13.6 mg/kg, AUC0-24h, IECN mice, AαC 13.6 mg/kg oral gavage, mean ± S.D. n=5): 68.4 ± 18.2 ng·h/mL
AUC(0-t) ([2]; male, C57BL/6, mouse, po, 13.6 mg/kg, AUC0-24h, LCN mice, AαC 13.6 mg/kg oral gavage, mean ± S.D. n=5): 1360 ± 595 ng·h/mL
AUC(0-t) ([2]; male, C57BL/6, mouse, po, 13.6 mg/kg, AUC0-24h, WT mice, AαC 13.6 mg/kg oral gavage, mean ± S.D. n=5): 57.6 ± 14.2 ng·h/mL
Cmax ([2]; male, C57BL/6, mouse, po, 13.6 mg/kg, Cmax, IECN mice, AαC 13.6 mg/kg oral gavage, mean ± S.D. n=5): 25.1 ± 12.4 ng/mL
Cmax ([2]; male, C57BL/6, mouse, po, 13.6 mg/kg, Cmax, LCN mice, AαC 13.6 mg/kg oral gavage, mean ± S.D. n=5): 272 ± 85.9 ng/mL
Cmax ([2]; male, C57BL/6, mouse, po, 13.6 mg/kg, Cmax, WT mice, AαC 13.6 mg/kg oral gavage, mean ± S.D. n=5): 26.5 ± 8.6 ng/mL
half-life ([2]; male, C57BL/6, mouse, po, 13.6 mg/kg, t1/2, IECN mice, AαC 13.6 mg/kg oral gavage, mean ± S.D. n=5): 3.9 ± 2.2 h
half-life ([2]; male, C57BL/6, mouse, po, 13.6 mg/kg, t1/2, LCN mice, AαC 13.6 mg/kg oral gavage, mean ± S.D. n=5): 2.8 ± 0.3 h
half-life ([2]; male, C57BL/6, mouse, po, 13.6 mg/kg, t1/2, WT mice, AαC 13.6 mg/kg oral gavage, mean ± S.D. n=5): 3 ± 2.4 h
P450 Oxidation (Liver microsomal P450 [3]; WT mouse liver microsomes): 103 ± 33 pmol/min/mg protein
AαC metabolism, if present (limit of detection by HPLC-UV) (Aldehyde Oxidase): < 50 pmol/min/mg protein
AαC metabolism, if present (limit of detection by HPLC-UV) [4]: < 50 pmol/min/mg protein

Nc1nc2[nH]c3ccccc3c2cc1OS(=O)(=O)O [AαC-3-OSO3H, 2-amino-9H-pyrido[2,3-b]indol-3-yl sulfate]
Cmax, fold higher in LCN mice than in WT mice ([2]; AαC 1.36 mg/kg oral gavage): ~2 fold
AUC 0-24 h in plasma, fold greater in LCN mice than in WT mice ([2]; AαC 13.6 mg/kg oral gavage): about 1.6 fold
AUC0-24h [2, 7]: 5310 ± 1650 ng·h/mL
CL/F [2, 7]: 77.0 ± 20.3^c ml/h
Cmax [2, 7]: 913 ± 248 ng/mL
Tmax [2, 7]: 1.8 ± 1.2 h
t1/2 [2, 7]: 2.8 ± 0.2 h
AUC0-6h [2, 8]: 438 ± 118^a h*ng/ml
CL/F [2, 8]: 76.0 ± 39.2^b ml/h
Cmax [2, 8]: 177 ± 73.0^a ng/ml
Tmax [2, 8]: 1.0 ± 0 h
t1/2 [2, 8]: 2.5 ± 1.7 h
AUC0-24h [2, 9]: 6140 ± 1330^b h*ng/ml
CL/F [2, 9]: 64.3 ± 13.6^a ml/h
Cmax [2, 9]: 586 ± 128 ng/mL
Tmax [2, 9]: 3.5 ± 2.3 h
t1/2 [2, 9]: 3.1 ± 0.2 h
AUC0-6h [2, 10]: 165.6 ± 47.6 ng·h/mL
CL/F [2, 10]: 180 ± 140 mL/h
Cmax [2, 10]: 74.6 ± 31.5 ng/mL
Tmax [2, 10]: 1.0 ± 0 h
t1/2 [2, 10]: 5.9 ± 6.1 h
AUC0-24h [2, 11]: 3700 ± 911 ng·h/mL
CL/F [2, 11]: 107 ± 27.9 mL/h
Cmax [2, 11]: 669 ± 251 ng/mL
Tmax [2, 11]: 1.8 ± 1.3 h
t1/2 [2, 11]: 3.4 ± 1.2 h

O=C(O)[C@H]1O[C@@H](Nc2ccc3c(n2)[nH]c2ccccc23)[C@H](O)[C@@H](O)[C@@H]1O [AαC-N^2-Glu, N^2-(β-1-glucosidurony1)-2-amino-9H-pyrido[2,3-b]indole]
Cmax and AUC0-24h, fold higher in LCN than in WT mice ([2]; AαC 13.6 mg/kg by gavage, plasma (abstract)): 4-24 fold
AUC 0-24 h in plasma, fold greater in LCN mice than in WT mice ([2]; AαC 13.6 mg/kg oral gavage): ~ 6 fold
Cmax in plasma, fold greater in LCN mice than in WT mice ([2]; AαC 13.6 mg/kg oral gavage): 4.5 fold
clearance rate, fold lower in LCN mice than in WT mice ([2]; AαC 13.6 mg/kg oral gavage): 6.6 fold
AUC0-24h [2, 7]: 150 ± 30.0 ng·h/mL
CL/F [2, 7]: 3180 ± 1031 mL/h
Cmax [2, 7]: 42.4 ± 15.4 ng/mL
Tmax [2, 7]: 1.8 ± 1.2 h
t1/2 [2, 7]: 2.5 ± 2.2 h
AUC0-6h [2, 8]: 195 ±78.7^a h*ng/ml
CL/F [2, 8]: 207 ± 100^a ml/h
Cmax [2, 8]: 74.3 ± 48.6^a ng/ml
t1/2 [2, 8]: 1.5 ± 0.8 h
AUC0-24h [2, 9]: 803 ± 241^a h*ng/ml
CL/F [2, 9]: 543 ± 148^a ml/h
Cmax [2, 9]: 186 ± 85.0^b ng/ml
Tmax [2, 9]: 1.0 ± 0 h
t1/2 [2, 9]: 2.1 ± 0.5 h
AUC0-6h [2, 10]: 40.5 ± 16.6 ng·h/mL
CL/F [2, 10]: 985 ± 372 mL/h
Cmax [2, 10]: 19.2 ± 13.5 ng/mL
t1/2 [2, 10]: 1.4 ± 0.7 h
AUC0-24h [2, 11]: 128 ± 26.8 ng·h/mL
CL/F [2, 11]: 3610 ± 566 mL/h
Cmax [2, 11]: 40.2 ± 9.6 ng/mL
Tmax [2, 11]: 1.0 ± 0 h
t1/2 [2, 11]: 1.5 ± 0.7 h

COc1ccc2nc3ccc(=O)cc-3oc2c1 [MROD, methoxyresorufin]
MROD activity, fold decrease in LCN liver microsomes compared to WT microsomes (Liver microsomal P450 [3]): greater than 10 fold

Cc1cnc2ccc3c(nc(N)n3C)c2n1 [MeIQx, 2-amino-3,8-dimethylimidaz[4,5-f]quinoxaline]
P450 Oxidation (Liver microsomal P450 [1]): 1010 ± 155 pmol/min/mg protein
P450 Oxidation (Liver microsomal P450 [3]; LCN mouse liver microsomes): 67 ± 44 pmol/min/mg protein
levels of metabolism, fold greater than AαC (Liver microsomal P450 [3]; WT mouse liver microsomes): 3 to 4 fold
P450 Oxidation (Liver microsomal P450 [3]; WT mouse liver microsomes): 404 ± 155 pmol/min/mg protein

Cn1c(N)nc2ncc(-c3ccccc3)cc21 [PhIP, 2-amino-1-methyl-6-phenylimidazo[4,5-b]pyridine]
P450 Oxidation (Liver microsomal P450 [1]): 1440 ± 280 pmol/min/mg protein
levels of metabolism, fold greater than AαC (Liver microsomal P450 [3]; WT mouse liver microsomes): 3 to 4 fold
P450 Oxidation (Liver microsomal P450 [3]; WT mouse liver microsomes): 362 ± 120 pmol/min/mg protein
levels of DNA adducts in Cyp1a2-null vs WT mice (DNA [5]): ten-fold lower
PhIP-DNA adduct levels in liver of RCN compared to WT mice (DNA [6]): unchanged

Cc1nc2c([nH]1)c(=O)n(C)c(=O)n2Cc1ccco1 [furafylline]
inhibition of dG-C8-AαC adduct formation (P450 1A2): only partially inhibited
